ChEMBL document CHEMBL3885881, “DrugMatrix”

Species: Rattus norvegicus
Assay: DrugMatrix - Regimen: Daily Repeat
Assay type: toxicity, organism-based, Sprague-Dawley
Set-up: regimen Daily Repeat, gender Male, age 6-8 weeks
Settings: in vivo, po, route oral GAVAGE, vehicle .5 % CMC; for ABSOLUTE BASOPHIL / ABSOLUTE EOSINOPHIL / ABSOLUTE LYMPHOCYTE / ABSOLUTE MONOCYTE / ABSOLUTE SEGMENTED NEUTROPHIL / BASOPHIL / EOSINOPHIL / ERYTHROCYTE COUNT / HEMATOCRIT / HEMOGLOBIN / LEUKOCYTE COUNT / LYMPHOCYTE / MEAN CORPUSCULAR HEMOGLOBIN / MEAN CORPUSCULAR HEMOGLOBIN CONCENTRATION / MEAN CORPUSCULAR VOLUME / MONOCYTE / NEUTROPHIL / NUCLEATED RED BLOOD CELLS / PLATELET COUNT: tissue Blood; for ALANINE AMINOTRANSFERASE / ALBUMIN / ALKALINE PHOSPHATASE / ASPARTATE AMINOTRANSFERASE / BLOOD UREA NITROGEN / CARBON DIOXIDE / CHLORIDE / CHOLESTEROL / CREATINE PHOSPHOKINASE / CREATININE / GLUCOSE / LACTATE DEHYDROGENASE / LIPASE / PHOSPHORUS / POTASSIUM / SODIUM / TOTAL BILIRUBIN / TOTAL PROTEIN / URIC ACID: tissue Plasma
[1] = 150 mg/kg, 120 h, dose level Low, time 5 day
[2] = 1500 mg/kg, 72 h, dose level High, time 3 day
[3] = 1500 mg/kg, 120 h, dose level High, time 5 day

C[C@]1(Cn2ccnn2)[C@H](C(=O)O)N2C(=O)C[C@H]2S1(=O)=O [TAZOBACTAM]
ABSOLUTE BASOPHIL [1]: 0 CELLS/uL
ABSOLUTE EOSINOPHIL [1]: 96 CELLS/uL
ABSOLUTE LYMPHOCYTE [1]: 12730.67 CELLS/uL
ABSOLUTE MONOCYTE [1]: 0 CELLS/uL
ABSOLUTE SEGMENTED NEUTROPHIL [1]: 1940 CELLS/uL
BASOPHIL [1]: 0%
EOSINOPHIL [1]: 0.67%
ERYTHROCYTE COUNT [1]: 5.47 x10E6/uL
HEMATOCRIT [1]: 33.33%
HEMOGLOBIN [1]: 12.73 G/DL
LEUKOCYTE COUNT [1]: 14.77 x10E3/uL
LYMPHOCYTE [1]: 86%
MEAN CORPUSCULAR HEMOGLOBIN [1]: 23.3 pg
MEAN CORPUSCULAR HEMOGLOBIN CONCENTRATION [1]: 38.2 G/DL
MEAN CORPUSCULAR VOLUME [1]: 60.97 fL
MONOCYTE [1]: 0%
NEUTROPHIL [1]: 13.33%
NUCLEATED RED BLOOD CELLS [1]: 0 /100WBC
PLATELET COUNT [1]: 1082 x10E3/uL
ALANINE AMINOTRANSFERASE [1]: 60.67 u/L
ALBUMIN [1]: 4.2 G/DL
ALKALINE PHOSPHATASE [1]: 333 u/L
ASPARTATE AMINOTRANSFERASE [1]: 84 u/L
BLOOD UREA NITROGEN [1]: 17.33 mg/dL
CARBON DIOXIDE [1]: 23.33 mmol/L
CHLORIDE [1]: 104.33 MEQ/L
CHOLESTEROL [1]: 76.67 mg/dL
CREATINE PHOSPHOKINASE [1]: 277 u/L
CREATININE [1]: 0.21 mg/dL
GLUCOSE [1]: 141.33 mg/dL
LACTATE DEHYDROGENASE [1]: 295.67 u/L
LIPASE [1]: 9 u/L
PHOSPHORUS [1]: 13.07 mg/dL
POTASSIUM [1]: 6.29 MEQ/L
SODIUM [1]: 144.97 MEQ/L
TOTAL BILIRUBIN [1]: 0.17 mg/dL
TOTAL PROTEIN [1]: 5.8 G/DL
URIC ACID [1]: 1.83 mg/dL
ABSOLUTE BASOPHIL [2]: 0 CELLS/uL
ABSOLUTE EOSINOPHIL [2]: 240.33 CELLS/uL
ABSOLUTE LYMPHOCYTE [2]: 12544 CELLS/uL
ABSOLUTE MONOCYTE [2]: 44.33 CELLS/uL
ABSOLUTE SEGMENTED NEUTROPHIL [2]: 838 CELLS/uL
BASOPHIL [2]: 0%
EOSINOPHIL [2]: 1.67%
ERYTHROCYTE COUNT [2]: 5.29 x10E6/uL
HEMATOCRIT [2]: 33.47%
HEMOGLOBIN [2]: 12.83 G/DL
LEUKOCYTE COUNT [2]: 13.67 x10E3/uL
LYMPHOCYTE [2]: 91.67%
MEAN CORPUSCULAR HEMOGLOBIN [2]: 24.23 pg
MEAN CORPUSCULAR HEMOGLOBIN CONCENTRATION [2]: 38.33 G/DL
MEAN CORPUSCULAR VOLUME [2]: 63.23 fL
MONOCYTE [2]: 0.33%
NEUTROPHIL [2]: 6.33%
NUCLEATED RED BLOOD CELLS [2]: 0 /100WBC
PLATELET COUNT [2]: 1291.33 x10E3/uL
ALANINE AMINOTRANSFERASE [2]: 65.33 u/L
ALBUMIN [2]: 4.1 G/DL
ALKALINE PHOSPHATASE [2]: 447.33 u/L
ASPARTATE AMINOTRANSFERASE [2]: 89 u/L
BLOOD UREA NITROGEN [2]: 15.67 mg/dL
CARBON DIOXIDE [2]: 27.33 mmol/L
CHLORIDE [2]: 102.67 MEQ/L
CHOLESTEROL [2]: 73.33 mg/dL
CREATINE PHOSPHOKINASE [2]: 209.33 u/L
CREATININE [2]: 0.18 mg/dL
GLUCOSE [2]: 161.67 mg/dL
LACTATE DEHYDROGENASE [2]: 102 u/L
LIPASE [2]: 9 u/L
PHOSPHORUS [2]: 13.27 mg/dL
POTASSIUM [2]: 6.83 MEQ/L
SODIUM [2]: 146.53 MEQ/L
TOTAL BILIRUBIN [2]: 0.17 mg/dL
TOTAL PROTEIN [2]: 5.63 G/DL
URIC ACID [2]: 1.73 mg/dL
ABSOLUTE BASOPHIL [3]: 0 CELLS/uL
ABSOLUTE EOSINOPHIL [3]: 130.33 CELLS/uL
ABSOLUTE LYMPHOCYTE [3]: 11683.33 CELLS/uL
ABSOLUTE MONOCYTE [3]: 0 CELLS/uL
ABSOLUTE SEGMENTED NEUTROPHIL [3]: 1019.67 CELLS/uL
BASOPHIL [3]: 0%
EOSINOPHIL [3]: 1%
ERYTHROCYTE COUNT [3]: 5.74 x10E6/uL
HEMATOCRIT [3]: 36.23%
HEMOGLOBIN [3]: 13.93 G/DL
LEUKOCYTE COUNT [3]: 12.83 x10E3/uL
LYMPHOCYTE [3]: 91%
MEAN CORPUSCULAR HEMOGLOBIN [3]: 24.47 pg
MEAN CORPUSCULAR HEMOGLOBIN CONCENTRATION [3]: 38.5 G/DL
MEAN CORPUSCULAR VOLUME [3]: 63.5 fL
MONOCYTE [3]: 0%
NEUTROPHIL [3]: 8%
NUCLEATED RED BLOOD CELLS [3]: 0 /100WBC
PLATELET COUNT [3]: 1185.67 x10E3/uL
ALANINE AMINOTRANSFERASE [3]: 58.67 u/L
ALBUMIN [3]: 4.4 G/DL
ALKALINE PHOSPHATASE [3]: 302 u/L
ASPARTATE AMINOTRANSFERASE [3]: 76 u/L
BLOOD UREA NITROGEN [3]: 18.33 mg/dL
CARBON DIOXIDE [3]: 27 mmol/L
CHLORIDE [3]: 104 MEQ/L
CHOLESTEROL [3]: 62.67 mg/dL
CREATINE PHOSPHOKINASE [3]: 174 u/L
CREATININE [3]: 0.22 mg/dL
GLUCOSE [3]: 170 mg/dL
LACTATE DEHYDROGENASE [3]: 115.67 u/L
LIPASE [3]: 9 u/L
PHOSPHORUS [3]: 12.83 mg/dL
POTASSIUM [3]: 6.45 MEQ/L
SODIUM [3]: 148.17 MEQ/L
TOTAL BILIRUBIN [3]: 0.2 mg/dL
TOTAL PROTEIN [3]: 6.2 G/DL
URIC ACID [3]: 1.8 mg/dL
